In patent US20260199239A1, “IONIZABLE LIPIDS WITH MALONATE TAILS” (ModernaTX, Inc., priority 2022, published 2026):
Values joined by “and” are separate entries in the source; they are usually repeats but may differ in a detail not shown here. Equal values may be shown once.

What was measured:
[1] = LNP particle size and polydispersity index (PDI); type: physicochemical; conditions: LNP lipid:PEG-1:DSPC:Cholesterol 48:2:11:39, hEPO mRNA, 20 mM Tris 8% Sucrose pH 7.4
Method: A Zetasizer Nano ZS (Malvern Instruments Ltd, Malvern, Worcestershire, UK) can be used to determine the particle size, the polydispersity index (PDI) and the zeta potential of the nanoparticle compositions in 1×PBS in determining particle size and 15 mM PBS in determining zeta potential.
LNPs may be characterized by a variety of methods. For example, microscopy (e.g., transmission electron microscopy or scanning electron microscopy) may be used to examine the morphology and size distribution of a nanoparticle composition. Dynamic light scattering or potentiometry (e.g., potentiometric titrations) may be used to measure zeta potentials. Dynamic light scattering may also be utilized to determine particle sizes. Instruments such as the Zetasizer Nano ZS (Malvern Instruments Ltd, Malvern, Worcestershire, UK) may also be used to measure multiple characteristics of a nanoparticle composition, such as particle size, polydispersity index, and zeta potential.
(§1) LNPs comprising ionizable lipids described herein were formulated according to Table 2 and the following general procedure.
(§2) General procedure for one-pot LNP formation: Lipid stock solutions in ethanol are mixed with mRNA in 25 mM acetate solution at a 3:1 ratio in a microfluidic mixer. The resulting LNPs, which are at approximately pH 5 and 25% EtOH, are buffer exchanged by dialysis into the storage buffer. The LNP solutions are then concentrated by Amicon® and purified by a 0.2 uM sterile filter.

[2] = mRNA encapsulation by the LNP (% EE, total mRNA in TX); type: physicochemical; conditions: LNP lipid:PEG-1:DSPC:Cholesterol 48:2:11:39, hEPO mRNA
Method: For nanoparticle compositions including an RNA, a QUANT-IT™ RIBOGREEN® RNA assay (Invitrogen Corporation Carlsbad, CA) can be used to evaluate the encapsulation of an RNA by the nanoparticle composition. The samples are diluted to a concentration of approximately 5 μg/mL in a TE buffer solution (10 mM Tris-HCl, 1 mM EDTA, pH 7.5). 50 μL of the diluted samples are transferred to a polystyrene 96 well plate and either 50 μL of TE buffer or 50 μL of a 2% Triton X-100 solution is added to the wells. The plate is incubated at a temperature of 37° C. for 15 minutes. The RIBOGREEN® reagent is diluted 1:100 in TE buffer, and 100 μL of this solution is added to each well. The fluorescence intensity can be measured using a fluorescence plate reader (Wallac Victor 1420 Multilablel Counter; Perkin Elmer, Waltham, MA) at an excitation wavelength of, for example, about 480 nm and an emission wavelength of, for example, about 520 nm. The fluorescence values of the reagent blank are subtracted from that of each of the samples and the percentage of free RNA is determined by dividing the fluorescence intensity of the intact sample (without addition of Triton X-100) by the fluorescence value of the disrupted sample (caused by the addition of Triton X-100).
The efficiency of encapsulation of a therapeutic and/or prophylactic agent describes the amount of therapeutic and/or prophylactic agent that is encapsulated or otherwise associated with an LNP after preparation, relative to the initial amount provided. The encapsulation efficiency is desired to be high (e.g., close to 100%). The encapsulation efficiency may be measured, for example, by comparing the amount of therapeutic and/or prophylactic agent in a solution containing a loaded LNP before and after breaking up the loaded LNP with one or more organic solvents or detergents. Fluorescence may be used to measure the amount of free therapeutic and/or prophylactic agent (e.g., RNA) in a solution. For the loaded LNPs formulated with lipids of the disclosure, the encapsulation efficiency of a therapeutic and/or prophylactic agent is at least 50%, for example 50%, 55%, 60%, 65%, 70%, 75%, 80%, 85%, 90%, 91%, 92%, 93%, 94%, 95%, 96%, 97%, 98%, 99%, or 100%. In some embodiments, the encapsulation efficiency is at least 80%. In some embodiments, the encapsulation efficiency is at least 90%. In some embodiments, the encapsulation efficiency of the therapeutic and/or prophylactic agent is between 80% and 100%.
as §1, §2

[3] = Osmolality of LNP formulation; type: physicochemical; conditions: LNP formulation in 20 mM Tris 8% Sucrose storage buffer
Source text: as §1

hEPO protein expression = hEPO protein expression in vivo after systemic administration of LNPs
Method: In order to monitor how effectively various nanoparticle compositions deliver therapeutic and/or prophylactic agents to targeted cells, different nanoparticle compositions including a particular therapeutic and/or prophylactic agent (for example, a modified or naturally occurring RNA such as an mRNA) are prepared and administered to animal populations. Animals (e.g., mice, rats, or non-human primates) are intravenously, intramuscularly, intraarterially, or intratumorally administered a single dose including a nanoparticle composition comprising a lipid of the disclosure and an mRNA expressing a protein, e.g., human erythropoietin (hEPO) or luciferase. A control composition including PBS may also be employed.
Upon administration of nanoparticle compositions to an animal, dose delivery profiles, dose responses, and toxicity of particular formulations and doses thereof can be measured by enzyme-linked immunosorbent assays (ELISA), bioluminescent imaging, or other methods. For nanoparticle compositions including mRNA, time courses of protein expression can also be evaluated. Samples collected from the animals for evaluation may include blood, sera, and tissue (for example, muscle tissue from the site of an intramuscular injection and internal tissue); sample collection may involve sacrifice of the animals.
ELISA test kits may provide hEPO concentrations in milli International Units per mL (mIU/mL), e.g., per mL of tested serum. Typically, the EPO concentration of unknown sample is calculated from a calibration curve. Standards (used for the calibration curve) are calibrated according to the 2. IRP WHO preparation. In some embodiments, mIU/mL corresponds to […]. Nanoparticle compositions including mRNA are useful in the evaluation of the efficacy and usefulness of various formulations for the delivery of therapeutic and/or prophylactic agents. Higher levels of protein expression induced by administration of a composition including an mRNA will be indicative of higher mRNA translation and/or nanoparticle composition mRNA delivery efficiencies. As the non-RNA components are not thought to affect translational machineries themselves, a higher level of protein expression is likely indicative of a higher efficiency of delivery of the therapeutic and/or prophylactic agent by a given nanoparticle composition relative to other nanoparticle compositions or the absence thereof.
In some embodiments, an in vivo expression assay may be used to assess potency of expression of lipids of the disclosure. In some embodiments, the protein expression (hEPO) may be measured in mice following administration of a nanoparticle comprising a lipid of the disclosure (e.g., a loaded LNP). In some embodiments, lipid nanoparticles of the instant disclosure may be intravenously administered to mice (e.g., CD-1 mice).
In some embodiments, the concentration of hEPO in serum may be tested after administration (e.g., about six hours after injection). In some embodiments, residual levels of the lipids of the disclosure in organs or tissue of the subject after administration (e.g., 6 h, 12 h, 18 h, 24 h, 36h, or 48 h after administration) are measured. In some embodiments, the residual levels of the lipids of the disclosure in the liver are measured. In some embodiments, an in vitro expression assay may be used to assess nanoparticles of the disclosure. In some embodiments, cells (e.g., HeLa) may be plated in an imaging plate (e.g., poly-D-lysine coated) and cultured in serum (e.g., human serum, mouse serum, cynomolgus monkey serum or fetal bovine serum). In some embodiments, lipid nanoparticles of the disclosure comprising an mRNA expressing fluorescent protein (e.g., green fluorescent protein (GFP)) and a fluorescent lipid (e.g., rhodamine-DOPE) may be added to the plate and the plate imaged for uptake and expression. In some embodiments, expression may be evaluated by measuring fluorescence (e.g., from GFP). […]

[4] = Endotoxin content of LNP formulation; conditions: LNP lipid:PEG-1:DSPC:Cholesterol 48:2:11:39, hEPO mRNA
Source text: as §1

pH of LNP formulation = type: physicochemical; conditions: LNP formulation in 20 mM Tris 8% Sucrose storage buffer
Source text: as §1

[5] = Table 3A groups 1-8, ratio to L5 LNP
[6] = Table 3B groups 1A-8A, ratio to L5 LNP

Row | SMILES | PDI [1] | Size (nm) [1] | % EE [2] | Osmolality (mOsm/kg) [3] | 6 hr protein expression ratio cf. L5 (hEPO protein expression; [5]) | 24 hr protein expression ratio cf. L5 (hEPO protein expression; [5]) | Endotoxin (EU/mL) [4] [EU/mL] | pH (pH of LNP formulation) | 6 hr protein expression ratio cf. L5 (hEPO protein expression; [6]) | 24 hr protein expression ratio cf. L5 (hEPO protein expression; [6])
1 | CCCCCCCCC(CCCCCCCC)OC(=O)CCCCCCCN(CCCCCCCC(=O)OCCC(CCCC)CCCC)CCCNS(=O)(=O)CC [Compound L2, reference compound] | 0.177 | 60.7 nm | 95.8% | 315 mOsm/kg | 0.7 | 0.8 |  |  |  | 
2 | CCCCCCCCCOC(=O)CCCCCCCN(CCO)CCCCCCCC(=O)OC(CCCCCCCC)CCCCCCCC [Compound L4, reference compound] |  | 74.9 nm and 104.5 nm | 94.8% and 92.6% | 317 mOsm/kg and 311 mOsm/kg | 0.1 | 0.1 | 2.3 | 7.444 | 0.08 | 0.07
3 | CCCCCCCCC(CC)OC(=O)CCCCCCCN(CCCCCCCC(=O)OC(CCCCCCCC)CCCCCCCC)CCCNc1c(NC)c(=O)c1=O (centres unmarked) [Compound L5, reference compound] | 0.117 and 0.119 | 60.4 nm and 59.9 nm | 95.2% and 96.1% | 313 mOsm/kg and 320 mOsm/kg | 1.0 | 1.0 | 2 | 7.456 | 1.00 | 1.00
4 | CCCCCCCCC(CCCCCCCC)OC(=O)CCCCCCCN(CCO)CCCCCCCC(=O)OCCC(CCCC)CCCC [Compound L6, reference compound] | 0.166 | 58.2 nm | 96.9% | 321 mOsm/kg |  |  | 2.3 | 7.468 | 0.94 | 0.84
5 | CCCCCCCCC(CCCCCCCC)OC(=O)CCCCCCCN(CCO)CCCCCCC(C(=O)OCCCCCC)C(=O)OCCCCCC [Compound M1, Dihexyl 2-(6-((8-(heptadecan-9-yloxy)-8-oxooctyl)(2-hydroxyethyl)amino)hexyl)malonate] | 0.164 and 0.128 | 57.0 nm and 58.7 nm | 96.9% and 94.1% | 314 mOsm/kg and 320 mOsm/kg | 0.9 | 0.9 | 2.4 | 7.452 | 1.70 | 1.46
6 | CCCCCCCCOC(=O)C(CCCCCCN(CCO)CCCCCCCC(=O)OC(CCCCCCCC)CCCCCCCC)C(=O)OCCCCCCCC [Compound M2, Dioctyl 2-(6-((8-(heptadecan-9-yloxy)-8-oxooctyl)(2-hydroxyethyl)amino)hexyl)malonate] | 0.186 | 58.0 nm | 97.9% | 315 mOsm/kg | 0.3 | 0.3 |  |  |  | 
7 | CCCCCCCCC(CCCCCCCC)OC(=O)CCCCCCCN(CCCCCCC(C(=O)OCCCCCC)C(=O)OCCCCCC)CCCNc1c(NC)c(=O)c1=O [Compound M3, Dihexyl 2-(6-((8-(heptadecan-9-yloxy)-8-oxooctyl)(3-((2-(methylamino)-3,4-dioxocyclobut-1-en-1-yl)amino)propyl)amino)hexyl)malonate] | 0.148 and 0.132 | 59.3 nm and 59.1 nm | 97.8% and 98.3% | 317 mOsm/kg and 318 mOsm/kg | 1.0 | 1.2 | 2 | 7.155 | 2.53 | 2.42
